PubChem BioAssay AID1549 (Sanford-Burnham Center for Chemical Genomics, 2009)
The source made the active and inactive calls. How the calls were made is not given here.

Each molecule was assayed against Influenza A virus M2 proton channel (A/TW/4845/1999 H1N1) (assay: M2 proton channel binding, NMR based, influenza A virus H1N1 strain (AID 1549)). Settings: NMR binding screen, M2 protein.
O=C(O[C@@H]1Cc2c(O)cc(O)cc2O[C@@H]1c1cc(=O)c(O)c2c(O)c(O)cc([C@H]3Oc4cc(O)cc(O)c4C[C@H]3O)c2c1)c1cc(O)c(O)c(O)c1 was tested, and the Kd was > 4 mM (inactive). For Cc1cc(C(F)(F)F)nn1CC(N)=O, the Kd was > 4 mM (inactive). With O=C(NCc1ccncc1)c1cccc(F)c1 the Kd was > 4 mM (inactive). With CCC(=O)Nc1cccc(NC(C)=O)c1 the Kd was > 4 mM (inactive). O=C(NC(=O)N1CCOCC1)c1ccccc1 was tested, and the Kd was > 4 mM (inactive). In the case of CC(C)(C)P(=O)(O)c1ccccc1, the Kd is reported as > 4 mM (inactive). In the case of O=C(O)c1cc(O)c(O)c(O)c1, the Kd is reported as > 4 mM (inactive). In the case of Nc1c2c3c(sc2nc(=O)n1N)CCCC3, the Kd is reported as > 4 mM (inactive). In the case of CNC(=S)NCCN1CCOCC1, the Kd is reported as > 4 mM (inactive). In the case of Cn1nc(C(=O)NCc2cccnc2)c2ccccc2c1=O, the Kd is reported as > 4 mM (inactive). With CS(=O)(=O)N1CCN(C(=O)c2ccccc2F)CC1 the Kd was > 4 mM (inactive). For COCC(=O)Nc1nc2ccc(C)cc2s1, the Kd was > 4 mM (inactive). CSc1nc(O)cc(=O)[nH]1 was tested, and the Kd was > 4 mM (inactive). In the case of O=C(O)c1scc2c1CCCC2, the Kd is reported as > 4 mM (inactive). In the case of O=C(c1ccc(F)cc1)N1CCN(c2ncccn2)CC1, the Kd is reported as > 4 mM (inactive). For Cc1ccc(CCNc2ccccc2)c[n+]1[O-], the Kd was > 4 mM (inactive). For Nc1nc2ncc(CNc3ccc(C(=O)N[C@@H](CCC(=O)O)C(=O)O)cc3)nc2c(=O)[nH]1, the Kd was > 4 mM (inactive). For CC12CCC3C(CC3(C)C)C(C)(CCC1=O)O2 (centres undefined), the Kd was > 4 mM (inactive). For CSc1nc(C)cc(Oc2ccc(=O)n(C)n2)n1, the Kd was > 4 mM (inactive). For Cn1nccc1N, the Kd was > 4 mM (inactive). In the case of COc1ccc(NC(=O)CCCC(=O)O)c(OC)c1, the Kd is reported as > 4 mM (inactive). For O=C(Nc1ccncc1)c1cncc(Br)c1, the Kd was > 4 mM (inactive). O=C(O)c1ccc2ccccc2n1 was tested, and the Kd was > 4 mM (inactive). In the case of CC(C)C(C)/C=C/C(C)C1CCC2C3=CC=C4CC(O)CCC4(C)C3CCC21C (centres undefined), the Kd is reported as > 4 mM (inactive). With NC(=O)Nc1cccc(C(F)(F)F)c1 the Kd was > 4 mM (inactive). For O=C1COc2cc(O)ccc21, the Kd was > 4 mM (inactive). O=C(NC(=S)NC1CCSC1=O)c1ccco1 (centres undefined) was tested, and the Kd was > 4 mM (inactive). O=C(O)C1CSC(c2ccco2)N1 (centres undefined) was tested, and the Kd was > 4 mM (inactive). With CC(C)(C)C(=O)Nc1ncc(C(F)(F)F)cc1Cl the Kd was > 4 mM (inactive). In the case of CN1CCN(C(=O)c2ccco2)CC1, the Kd is reported as > 4 mM (inactive). With Cc1ccc(C(=O)Nc2nnc(-c3ccncc3)s2)o1 the Kd was > 4 mM (inactive). Nc1ccc(NS(=O)(=O)c2ccc(N)cc2)cc1 was tested, and the Kd was > 4 mM (inactive). With c1ccc(SCc2nc(-c3ccccn3)no2)cc1 the Kd was > 4 mM (inactive). CCCCn1c(=O)cc(O)c2ccccc21 was tested, and the Kd was > 4 mM (inactive). Cc1c(N=CN(C)C)c(=O)n(-c2ccccc2)n1C was tested, and the Kd was > 4 mM (inactive). With Cc1ccc2nc(SCCC#N)nc(C)c2c1 the Kd was > 4 mM (inactive). With O=C(O)Cn1cc(C(=O)c2cccs2)c2ccccc21 the Kd was > 4 mM (inactive). With NC(=O)c1cccc(N2C(=O)C=CC2=O)c1 the Kd was > 4 mM (inactive). In the case of CSc1ccc2nnc(-c3cccnc3)n2n1, the Kd is reported as > 4 mM (inactive). In the case of CS(=O)(=O)N/N=C/c1cccs1, the Kd is reported as > 4 mM (inactive). In the case of O=S1(=O)CCC(NC(=S)Nc2ccc(O)cc2)C1 (centres undefined), the Kd is reported as > 4 mM (inactive). For C[C@@H]1C(=O)OC2[C@H](O)C34[C@@H]5OC(=O)[C@@]3(O[C@@H]3OC(=O)[C@H](O)[C@@]34[C@H](C(C)(C)C)[C@H]5O)[C@]21O (some centres undefined), the Kd was > 4 mM (inactive). With Cc1cc(C)n(/N=C\c2cccs2)c(=O)c1C(N)=O the Kd was > 4 mM (inactive). In the case of CN(C)Cc1nc2c([nH]1)c(=O)[nH]c(=O)n2C, the Kd is reported as > 4 mM (inactive). In the case of CN1CCCCC1c1ccc(-c2cccnc2)nc1 (centres undefined), the Kd is reported as > 4 mM (inactive). With c1ccc(-c2noc(-c3ccco3)n2)nc1 the Kd was > 4 mM (inactive). NC(=O)c1cc(N)cc(C(N)=O)c1 was tested, and the Kd was > 4 mM (inactive). With O=C(O)CN1C(=O)c2cccc([N+](=O)[O-])c2C1=O the Kd was > 4 mM (inactive). O=C(COc1ccccc1Cl)N1CCCC1 was tested, and the Kd was > 4 mM (inactive). In the case of O=C(c1ccco1)N1CCn2c1nc1ccccc12, the Kd is reported as > 4 mM (inactive). With N/C(=N/O)C1COc2ccccc2O1 (centres undefined) the Kd was > 4 mM (inactive). In the case of O=C(Nc1ccc2c(c1)OCO2)c1cnn2cccnc12, the Kd is reported as > 4 mM (inactive). For CN(C)c1n[nH]c(=O)[nH]c1=O, the Kd was > 4 mM (inactive). For Cc1cc(=O)oc2c1c(C)nn2CN1CCN(C)CC1, the Kd was > 4 mM (inactive). For Nc1ccccc1-n1cccn1, the Kd was > 4 mM (inactive). O=C(O)c1ccc(-n2cccc2)cc1 was tested, and the Kd was > 4 mM (inactive). COc1ccc(Cl)cc1NC(=O)c1ccco1 was tested, and the Kd was > 4 mM (inactive). In the case of CCOC(=O)C1C(C=C(C)C)C1(C)C (centres undefined), the Kd is reported as > 4 mM (inactive). For C=CCNC(=O)c1ccc(Cl)cc1Cl, the Kd was > 4 mM (inactive). CC(C)(CO)NC(=O)c1ccccc1F was tested, and the Kd was > 4 mM (inactive). For O=C1CCNc2ccccc2N1, the Kd was > 4 mM (inactive). With O=C(O)CSc1nc2ccccc2c(=O)[nH]1 the Kd was > 4 mM (inactive). For Cc1[nH]n(-c2ccccc2)c(=O)c1[N+](=O)[O-], the Kd was > 4 mM (inactive). CSc1ccccc1NC(=O)c1ccco1 was tested, and the Kd was > 4 mM (inactive). With Cn1ncc2c(=O)n(CC(=O)c3ccccc3)cnc21 the Kd was > 4 mM (inactive). For CC(C)/C(O)=C1/C(=O)O[C@@H](c2ccoc2)[C@]2(C)C(O)[C@@H](O)[C@@]34OC5(C)OC67CC(C)(C(O)[C@]6(O)[C@@H](O)[C@]3(O5)C12)[C@H](CC(=O)O)[C@]74C (some centres undefined), the Kd was > 4 mM (inactive). In the case of CCOC(=O)C1CCN(Cc2ccccc2)CC1, the Kd is reported as > 4 mM (inactive). For COC1C(O)C(O)C(O)[C@@H](O)C1O (some centres undefined), the Kd was > 4 mM (inactive). With COc1ccc(-c2nc(N)n(C(C)=O)n2)cc1 the Kd was > 4 mM (inactive). O=C1C[C@@H](c2ccc(O)cc2)Oc2cc(O)cc(O)c21 was tested, and the Kd was > 4 mM (inactive). In the case of CNC(=S)N1CCN(C(=O)c2ccco2)CC1, the Kd is reported as > 4 mM (inactive). With CN(C)/C=N/S(=O)(=O)c1ccccc1 the Kd was > 4 mM (inactive). With CC(=O)Nc1cccc(NC(=O)c2cccnc2)c1 the Kd was > 4 mM (inactive). In the case of O=C(O)c1ncoc1-c1ccccc1, the Kd is reported as > 4 mM (inactive). In the case of Cc1cc(=O)c2ccccc2n1CC(N)=O, the Kd is reported as > 4 mM (inactive). For CC(=O)c1csc(-c2cc(C)on2)n1, the Kd was > 4 mM (inactive). NCc1ccc(-n2cccn2)cc1 was tested, and the Kd was > 4 mM (inactive). In the case of O=C(OC[C@H]1O[C@H](OC(=O)c2cc(O)c(O)c(OC(=O)c3cc(O)c(O)c(O)c3)c2)[C@H](OC(=O)c2cc(O)c(O)c(OC(=O)c3cc(O)c(O)c(O)c3)c2)[C@@H](OC(=O)c2cc(O)c(O)c(OC(=O)c3cc(O)c(O)c(O)c3)c2)[C@@H]1OC(=O)c1cc(O)c(O)c(OC(=O)c2cc(O)c(O)c(O)c2)c1)c1cc(O)c(O)c(OC(=O)c2cc(O)c(O)c(O)c2)c1, the Kd is reported as > 4 mM (inactive). In the case of NCCCCNCCCN, the Kd is reported as > 4 mM (inactive). Nc1ncc2[nH]cnc2n1 was tested, and the Kd was > 4 mM (inactive). In the case of CCc1cc(=O)[nH]c(SCC(=O)NCCOC)n1, the Kd is reported as > 4 mM (inactive). With NC(=O)C1CCN(CN2C(=O)c3ccccc3C2=O)CC1 the Kd was > 4 mM (inactive). In the case of O=C1CCCN1C(=O)c1ccc(F)cc1, the Kd is reported as > 4 mM (inactive). For NCc1ccc2occc2c1, the Kd was > 4 mM (inactive). CC(=O)Nc1cccs1 was tested, and the Kd was > 4 mM (inactive). In the case of CCC(C)C(=O)c1c(O)c(C)c2oc3c(C)c(O)c(C(=O)C(C)CC)c(O)c3c2c1O (centres undefined), the Kd is reported as > 4 mM (inactive). For NC12CC3CC(C1)CC(C(=O)O)(C3)C2, the Kd was > 4 mM (inactive). In the case of N=c1c2c3c(sc2ncn1N)CCCC3, the Kd is reported as > 4 mM (inactive). In the case of NC(CC(=O)O)C(=O)Nc1ccc(Cl)cc1 (centres undefined), the Kd is reported as > 4 mM (inactive). With NC(=O)CN1CCC(c2nc3ccccc3[nH]2)CC1 the Kd was > 4 mM (inactive). With O=C(O)c1cc(=O)[nH]c2ccccc12 the Kd was > 4 mM (inactive). With Cc1ccc(NC(=O)C2CCN(S(C)(=O)=O)CC2)cc1 the Kd was > 4 mM (inactive). In the case of NC(=O)c1ccc(NC(=O)c2ccco2)cc1, the Kd is reported as > 4 mM (inactive). With CCN(CC)C(=O)c1n[nH]c(=O)c2ccccc12 the Kd was > 4 mM (inactive). C=CCc1cc(C(=O)N2CCCCC2)ccc1O was tested, and the Kd was > 4 mM (inactive). In the case of CN1C(=O)c2ccc(C(=O)NC3CCCCC3)cc2C1=O, the Kd is reported as > 4 mM (inactive). For COc1ccc(NC(=O)C2CC(=O)N=C(N)S2)cc1 (centres undefined), the Kd was > 4 mM (inactive). For NC(=O)Cn1nnc(-c2ccc(C(F)(F)F)cc2)n1, the Kd was > 4 mM (inactive). In the case of Nc1ccc(Cl)nn1, the Kd is reported as > 4 mM (inactive). In the case of Cn1cnc2c1c(=O)[nH]c(=O)n2C, the Kd is reported as > 4 mM (inactive). O=C(Nc1ccc(-c2nnco2)cc1)c1ccccc1 was tested, and the Kd was > 4 mM (inactive). For N#CCSc1nnc2ccc3ccccc3n12, the Kd was > 4 mM (inactive). For Cc1ccc(Nc2nnns2)cc1C, the Kd was > 4 mM (inactive). O=C(O)CC1C(=O)NCCN1Cc1cccs1 (centres undefined) was tested, and the Kd was > 4 mM (inactive). In the case of Nc1ccc2c(c1)COc1ccccc1O2, the Kd is reported as > 4 mM (inactive). With CC(=O)c1cc(C(N)=O)c(=S)[nH]c1C the Kd was > 4 mM (inactive). For Cc1cc(C(=O)c2c(C)nn(C)c2Cl)n(C)n1, the Kd was > 4 mM (inactive). For Cc1ccc(C(=O)NC2=NCCS2)o1, the Kd was > 4 mM (inactive). Nc1ccc2nccnc2c1 was tested, and the Kd was > 4 mM (inactive). With Cc1ccc2cc(N)ccc2n1 the Kd was > 4 mM (inactive). CCSc1nc2ccccc2n1CC(N)=O was tested, and the Kd was > 4 mM (inactive). In the case of CCn1cnc2scc(-c3ccccc3)c2c1=O, the Kd is reported as > 4 mM (inactive). For C1CCN2C[C@@H]3C[C@H](CN4CCCC[C@@H]34)[C@H]2C1, the Kd was > 4 mM (inactive). With CN1C(=O)/C(=C\c2ccc[nH]2)SC1=S the Kd was > 4 mM (inactive). For COn1c(=O)c(C)[n+]([O-])c2ccccc21, the Kd was > 4 mM (inactive). For CC1=NCCc2c1[nH]c1cc(O)ccc21, the Kd was > 4 mM (inactive). With O=C1C2CCCCC2C(=O)N1c1ccc(O)cc1 (centres undefined) the Kd was > 4 mM (inactive). For COC(=O)c1cc(-c2c[nH]c3ccccc23)n[nH]1, the Kd was > 4 mM (inactive). O=C(OCc1c(F)cccc1Cl)c1cnccn1 was tested, and the Kd was > 4 mM (inactive).
